“Also recorded” adds a separate entry of the source. *1 amine or outer side, *2 acyl side, *3 side chain or, on linkers, in order; H or OH if unused. Where a SMILES comes first, the peptide text is derived from it. Bridges are numbered along the chain shown (N, C = ends). Roman numbers before positions name the chains, in order. [ ]: non-standard residue; d: D form. Actinocin(9to1) = Cc1c2oc3c(C)ccc(C(=O)[*:1])c3nc-2c(C(=O)[*:2])c(N)c1=O; NMeV = CN[C@H](C(=O)O)C(C)C; Sar = CNCC(=O)O
Columns and labels:
Type in all cases: cell-based, rat
[1] = test system: oligodendroglial cells; test: Nuclear integrity assay: counts of intact nuclei (Zap-oglobin lysis) after insulin and IGF-I withdrawal; settings: for counts of intact nuclei compared to BM: alone in BM at 10^−5, 10^−7 and 10^−9 M; for numbers of intact nuclei for IGF-I and insulin withdrawn cells: alone in BM, actinomycin 1, 2.5, 5 μg/ml, cycloheximide 1, 5, 10, 50 μg/ml
Description: In order to examine insulin and IGF-I dependent survival of the cells of the oligodendroglial lineage, cells were trophically deprived for a period of 24 hours at 16 DIV.
Cells were trophically withdrawn by replacing the media with a serum free, chemically-defined base media (BM) lacking insulin and IGF-I (Bottenstein et al., 1988). The base media consisited of DMEM supplemented with penicillin (50 IU/ml); streptomycin (50 μg/ml); 1 mM sodium pyruvate; 50 μg/ml transferrin; 0.005 μg/ml sodium selenite; 16 μg/ml putrescine; 0.006 μg/ml progesterone and 0.1 mg/ml bovine serum albumin. All the cells were washed with BM twice before exposing them to individual treatment conditions. Control cells were washed and placed in BM supplemented with 2.5 ng/ml IGF-I and 5 μg/ml insulin to form the insulin media (IM).
Cell survival in the cultures was assessed according to the method of (Soto and Sonnenschein, 1985). After washing and treatment in BM, BM-D9, IM and IM-D9 for 24 h, cells were harvested, centrifuged at 500 rpm for 5 min and the supernatant removed. Pelleted cells were then lysed with 200 μl of 10% Zap-oglobin (Coulter Electronics, FL, USA). The lysing agent is a detergent containing solution that lyses the plasma membrane but leaves the nuclei intact. The lysed solution was collected and vortexed. A small volume (10 μl) of the solution was removed and intact nuclei were counted using a haemocytometer. To be counted, nuclei had to show a completely intact smooth outer border. Counts of intact nuclei were pooled for three or four experiments (a total of 15-20 wells were used for each treatment condition). each treatment condition).
OLs at 16 DIV were exposed to the different drug treatment conditions for 24 h, following which, the nuclear integrity assay was performed. On the day of the treatment, the cells growing in Nunc 24 well plates were washed twice with base media. Each treatment well received 50 μl of the appropriate drug solution and the total volume in the well was made up to 500 μl with either BM or IM.
Nuclear counts were obtained from quadruplicate wells per treatment condition and the experiment was repeated twice. OLs were exposed to the following treatment conditions: 1) IM, 2) BM, 3) BM-D9, 4) (−)-Desmethyldeprenyl (BM-Ds9), 5) IM-D9 and 6) IM +10^−9 M (−)-Desmethyldeprenyl (IM-Ds9).
The treatment conditions with the three general cytochrome P450 blockers were: 1) BM+Proadifen (2.5, 10, 25 μM), 2) BM-D9+Proadifen (2.5, 10, 25 μM), 3) BM-Ds9+Proadifen (2.5, 10, 25 μM), 4) BM+Metapyrone (50 μM), 5) BM-D9+Metapyrone (50 μM), 6) BM-Ds9+Metapyrone (50 μM), 7) BM+Piperonyl butoxide (100 μM), 5) BM-D9+Piperonyl butoxide (100 μM), 6) BM-Ds9+Piperonyl butoxide (100 μM).
OLs at 16 DIV were washed twice with base media and exposed either to actinomycin, a transcriptional blocker or cycloheximide, a translational blocker for 24 h. […] Actinomycin and cycloheximide were either used with base media alone or in combination with 10^−9 M (−)-desmethyldeprenyl. Each treatment well received 50 μl of the drug solution and the total volume of the well was made up to 500 μl with base media.
Counts of intact nuclei, obtained from quadruplicate wells per treatment condition were used to quantitate the effects of the transcriptional and translational blockers. Each experiment was repeated twice for experimental density series-II.

[2] = test system: mitochondrial membrane potential (ΔψM) of oligodendroglial cells; test: CMTMR estimation of mitochondrial membrane potential by confocal microscopy; design: ΔΨM (18 h): key to the marks not given beside the values; settings: for capacity of (−)-deprenyl and (−)-desmethyldeprenyl to maintain ΔψM in OL mitochondria: 10^−5 M with 10^−9 M (−)-deprenyl or (−)-desmethyldeprenyl in BM; for increases in ΔψM induced by (−)-deprenyl on OL mitochondria: proadifen 10 μM, metyapone 50 μM or piperonyl butoxide 100 μM with 10^−9 M (−)-deprenyl in BM
Description: The ΔψM was assessed by the addition of a lipophilic, potentiometric dye, chloromethyl-tetramethylrhodamine methyl ester (CMTMR, Mitotracker Orange™ Molecular Probes, Eugene, Oreg.). The CMTMR dye reacts with the thiol groups on proteins and peptides to form aldehyde fixable conjugates. Entry of the negatively charged mitochondrial matrix compartment is proportional to the difference in the membrane potential. Therefore, the CMTMR fluorescence labels the mitochondrial membrane potential generated due to the negativity difference between the mitochondrial matrix and the outside of the mitochondria. Upon cell fixation, CMTMR remains in the mitochondria and is not washed out unlike other mitochondrial potentiometric dyes like rhodamine123.
Oligodendrocytes at 16 DIV were placed in trophically deprived BM for 18 h or treated with BM-D9 or BM-Ds9. […] The cells were incubated in CMTMR at 37° C. for 15 min. The cells were then fixed with 4% cold paraformaldehyde on ice for 30 min and washed twice with 0.1M PBS. Consequently, the coverslips were mounted on glass slides with Aquamount (Gurr, England).
Individual mitochondria labeled with CMTMR were resolved by confocal microscopy. A Leica true confocal scanning (TCS) 4D microscope coupled to an argon-krypton laser (Omnichrome, USA) was used for cell imaging. A pinhole size of 20 with an excitation filter wavelength of 568 nm and an emission filter wavelength of 590 nm was used to image the CMTMR labeled mitochondria. Each field of the coverslip was imaged using an oil-immersion, 100 X, 1.3 N.A. objective at 512 by 512 by 8 bits per pixel resolution, background offset of −1 and line averaged 32 times in bi-directional line scan mode. Care was taken not to exceed the dynamic range of the gray value display. The confocal images obtained were saved on an optical drive in a tagged image file format (TIFF).
Fluorescence intensity of individual mitochondria was measured using the Metamorph™ program. Metamorph™ compiles measurements of objects in a 8-bit image ranging from gray values 0 (background) and 255. In order to obtain fluorescence intensity measures, a rectangular region tool of 2×2 pixels was used to measure two randomly selected areas within each mitochondrion. A total of ten mitochondria obtained equally from all the regions of each cell were measured within each image. About 20 images were analyzed for each treatment condition thereby giving a sum of about 400 mitochondrial fluorescence intensity measures. The raw values were then further graphed and analyzed with the Microcal Origin 4.1 program. Frequency count was performed on the data, which classified the data in ordered bins. A frequency distribution was obtained with lower bin value set at 0 and higher bin value set at 260.

[3] = test system: MBP, PLP, GC and CNPase-I; test: Western blot of PROL and OL marker proteins; settings: BM + 10^−9 M, 18 h

SMILES: CN[C@@H](C)Cc1ccccc1 [(−)-methamphetamine]
- increase in numbers of intact nuclei induced by (−)-deprenyl ([1]; 10^−5, 10^−7, 10^−9 M in combination with 10^−9 M (−)-deprenyl in BM, 24 h): significantly reduced the increase in numbers of intact nuclei induced by (−)-deprenyl in a graded concentration dependent manner
- counts of intact nuclei compared to BM ([1]; 24 h): did alter the counts of intact nuclei
- capacity of (−)-deprenyl and (−)-desmethyldeprenyl to maintain ΔψM in OL mitochondria ([2]; 18 h): reduce the capacity of (−)-deprenyl and (−)-desmethyldeprenyl to maintain ΔψM

SMILES: C[C@@H]1C[C@@H]([C@H](O)CC2CC(=O)NC(=O)C2)C(=O)[C@@H](C)C1 [cycloheximide]
- numbers of intact nuclei for IGF-I and insulin withdrawn cells ([1]; 24 h): Neither agent altered the numbers of intact nuclei

SMILES: CC(C)(C(=O)c1cccnc1)c1cccnc1 [metapyrone, 2-methyl-1,2-di(3-pyridyl)-1-propanone]
- increases in ΔψM induced by (−)-deprenyl on OL mitochondria ([2]; 18 h): blocked the increases in ΔψM induced by (−)-deprenyl

SMILES: Cc1c2oc3c(C)ccc(C(=O)N[C@@H]4C(=O)N[C@H](C(C)C)C(=O)N5CCC[C@H]5C(=O)N(C)CC(=O)N(C)[C@@H](C(C)C)C(=O)O[C@@H]4C)c3nc-2c(C(=O)N[C@@H]2C(=O)N[C@H](C(C)C)C(=O)N3CCC[C@H]3C(=O)N(C)CC(=O)N(C)[C@@H](C(C)C)C(=O)O[C@@H]2C)c(N)c1=O [actinomycin] (I: T[dV]P[Sar][NMeV] / II: T[dV]P[Sar][NMeV]; ester I:1-I:C, II:1-II:C; linker I:N-II:N via Actinocin(9to1))
- numbers of intact nuclei for IGF-I and insulin withdrawn cells ([1]; 24 h): Neither agent altered the numbers of intact nuclei

SMILES: C#CCN(C)C(C)Cc1ccccc1 (single isomer, unassigned; (+)) [(+)-deprenyl]
- concentration-survival relationship, numbers of intact nuclei ([1]; BM with 10^−5, 10^−7 and 10^−9 M, 24 h): did not alter the numbers of intact nuclei from the values found for BM

SMILES: C#CCN[C@H](C)Cc1ccccc1 [(−)-desmethyldeprenyl]
- increase in counts of intact nuclei compared to those for BM ([1]; BM + 10^−9 M, 24 h, metabolite experiments (FIG. 11)): 197%
- numbers of intact nuclei relative to IM ([1]; IM + 10^−9 M, 24 h, metabolite experiments (FIG. 11)): 103%
- Survival (24 h) ([1]; OL cell survival, relative to control (IM)): ++++
- band densities for MBP, CNP-ase I and PLP compared to IM [3]: exceed those for IM
- immunodensity of marker proteins (MBP, PLP, GC, CNPase-I) compared to BM [3]: marked increase in immunodensity compared to BM
- mitochondrial CMTMR fluorescence distributions (ΔψM) in ASTs, PROLs and OLs ([2]; BM + 10^−9 M, 18 h): not significantly different to those found for IM; also recorded: prevented the decrease in ΔψM
- ΔΨM (18 h) ([2]; OL, relative to control (IM)): ++++

SMILES: CC(N)Cc1ccccc1 (single isomer, unassigned; (-)) [(−)-amphetamine]
- capacity of (−)-deprenyl to increase survival of oligodendroglial cells ([1]; 10^−3, 10^−5, 10^−7, 10^−9 M in combination with 10^−9 M (−)-deprenyl in BM, 24 h): markedly reduced the capacity of (−)-deprenyl to increase the survival
- capacity of 10^−9 M (−)-desmethyldeprenyl to increase survival of oligodendroglial cells ([1]; 10^−5 M with 10^−9 M (−)-desmethyldeprenyl in BM, 24 h): completely eliminated the capacity of 10^−9 M (−)-desmethyldeprenyl to increase the survival
- counts of intact nuclei compared to BM ([1]; 24 h): did alter the counts of intact nuclei
- capacity of (−)-deprenyl and (−)-desmethyldeprenyl to maintain ΔψM in OL mitochondria ([2]; 18 h): reduce the capacity of (−)-deprenyl and (−)-desmethyldeprenyl to maintain ΔψM

SMILES: CCCC(C(=O)OCCN(CC)CC)(c1ccccc1)c1ccccc1 [proadifen]
- number of intact nuclei when compared to IM ([1]; proadifen 2.5 μM with 10^−9 M (−)-deprenyl in BM, 24 h): 144%
- number of intact nuclei when compared to IM ([1]; proadifen 10 μM with 10^−9 M (−)-deprenyl in BM, 24 h): 109%
- number of intact nuclei when compared to IM ([1]; proadifen 25 μM with 10^−9 M (−)-deprenyl in BM, 24 h): 91%
- intact nuclei values for BM only ([1]; proadifen 2.5, 10, 25 μM alone in BM, 24 h): did alter the values for BM only
- increase in intact nuclei induced by 10^−9 M (−)-desmethyldeprenyl ([1]; proadifen 2.5, 10, 25 μM with 10^−9 M (−)-desmethyldeprenyl in BM, 24 h): did not reduce the increase in intact nuclei
- increases in ΔψM induced by (−)-deprenyl on OL mitochondria ([2]; 18 h): blocked the increases in ΔψM induced by (−)-deprenyl

From patent US6492427B2, “Methods for treating multiple sclerosis” (priority 1998, dated 2002)
